Test results published in patent US20140171404A1, “Autotaxin inhibitors” (NOVARTIS AG, priority 2012, published 2014).

Biological target: T1, Recombinant human ATX (Homo sapiens, UniProt Q13822)
T1 construct: made in house; host or cells: human embryonic kidney (HEK) cells
Test: Assessing ATX inhibition: released choline, Amplex Red fluorescence
Type: biochemical
Details: ATX 10 nM, LPC 18:1 10 μM, pre-incubated with ATX at 37° C. for 20 minutes; Table 1, exemplified compounds; read-out: IC50
Experimental: LPC (oleoyl (18:1)) was purchased from Avanti Polar Lipids (Alabaster; AL) and solubilized in methanol to 20 mM. Amplex Red was obtained from Invitrogen Life Technologies (Paisley, UK) and dissolved in DMSO to 10 mM. Choline oxidase and horseradish peroxidase (HRP) were obtained from Sigma Aldrich (Dorset, UK) and dissolved in HBSS to 20 U/ml and 200 U/ml respectively. All reagents were stored at −20° C. in single use aliquots. All experimental measurements were performed in assay buffer made up immediately prior to use (HBSS, 0.01% BSA essentially fatty acid free).
Recombinant human ATX was prepared at Novartis (Basel, CH) in a human embryonic kidney (HEK) cell preparation, and stored in single use aliquots of […] (26 μM) stocks stored at −80° C.
All experimental measurements were performed in black 384 well polystyrene (low volume, round bottom, Corning (3676)) plates. PerkinElmer EnVision (Fluorescence Intensity/Absorbance Monochromator) or Tecan Infinite 200 PRO series plate reader was used to detect change in fluorescent intensity.
ATX activity was determined by measurement of released choline in reactions containing ATX (10 nM), choline oxidase (0.1 U/ml), HRP (100 U/ml), amplex red (50 μM) and LPC 18:1 (10 μM). Compounds of the invention were prepared as 10 point serial dilutions from 1 μM in duplicate and pre-incubated with ATX at 37° C. for 20 minutes prior to the addition of remaining reagents. The liberated choline was measured from changes in fluorescence intensity (λex 530 nm, λem 590 nm) of the product resurofin at 37° C. every 2 minutes over a 40-minute period. ATX activity was measured as a slope of the linear portion of the progress curve, typically between 14 to 24 minutes.
Slope data was exported to Graphpad prism (Graphpad software, San Diego, Calif.) where data was fitted to equation 1.
Y=Bottom+(Top−Bottom)/(1+10̂((Log IC50−X)*HillSlope)) Equation 1: […]

IC50 | Compound
119 nM | O=C(CCCc1c[nH]nn1)NC1CCN(C(=O)CCc2cc(Cl)cc(Cl)c2)CC1 [Example 42, N-(1-(3-(3,5-Dichlorophenyl)propanoyl)piperidin-4-yl)-4-(1H-1,2,3-triazol-4-yl)butanamide]
4 nM | O=C(CCCCCc1c[nH]nn1)NC1CCN(C(=O)OCc2cc(Cl)cc(Cl)c2)CC1 [Example 67, 3,5-Dichlorobenzyl 4-(6-(1H-1,2,3-triazol-4-yl)hexanamido)piperidine-1-carboxylate]
375 nM | O=C(NCCN1CCN(C(=O)OCc2cc(Cl)cc(Cl)c2)CC1)c1c[nH]c(=O)o1 [Example 27, 3,5-Dichlorobenzyl 4-(2-(2-oxo-2,3-dihydrooxazole-5-carboxamido)ethyl)piperazine-1-carboxylate]
791 nM | O=C(NC1CCCN(C(=O)CCCc2c[nH]nn2)CC1)OCc1cc(Cl)cc(Cl)c1 (stereo not drawn) [Example 48, 3,5-Dichlorobenzyl (1-(4-(1H-1,2,3-triazol-4-yl)butanoyl)azepan-4-yl)carbamate]
445 nM | CCOc1c(NCCC2CCN(C(=O)OCc3cc(Cl)cc(Cl)c3)CC2)c(=O)c1=O [Example 3]
2 nM | O=C(CCCc1c[nH]nn1)NC1CCN(C(=O)OCc2cc(Cl)cc(Cl)c2)CC1 [Example 17, 3,5-Dichlorobenzyl 4-(4-(1H-1,2,3-triazol-4-yl)butanamido)piperidine-1-carboxylate]
106 nM | O=C(NCCC1CCN(C(=O)OCc2cc(Cl)cc(Cl)c2)CC1)c1c[nH]c(=O)o1 [Example 21, 3,5-Dichlorobenzyl 4-(2-(2-oxo-2,3-dihydrooxazole-5-carboxamido)ethyl)piperidine-1-carboxylate]
77 nM | O=C(CCCc1c[nH]nn1)NC1CCN(C(=O)/C=C/c2ccc(Cl)cc2Cl)CC1 [Example 39, (E)-N-(1-(3-(2,4-Dichlorophenyl)acryloyl)piperidin-4-yl)-4-(1H-1,2,3-triazol-4-yl)butanamide]

Compound | IC50
O=C(CCCc1c[nH]nn1)NC1CC2CCC(C1)N2C(=O)OCc1cc(Cl)cc(Cl)c1 (stereo not drawn) [Example 45, 3,5-Dichlorobenzyl 3-(4-(1H-1,2,3-triazol-4-yl)butanamido)-8-azabicyclo[3.2.1]octane-8-carboxylate] | 555 nM
